Here are results for four compounds from US6759522B2, “Sulforhamnosylacyglycerol derivatives and use thereof as medicaments” (Toyo Suisan Kaisha, Ltd., priority 1999, dated 2004).

In test [1] the test system is gastric cancer cells NUGC-3. Kind of test: Assay 4: anticancer activity against cultured gastric cancer cells (MTT assay). It counts as cell-based. The note with it: Homo sapiens, NUGC-3, 48 hour cultivation. The method, then:
(§1) Colon cancer cells DLD-1 were maintained and subcultured in RPMI 1640 medium (containing 10% calf serum). Each of the test compounds (SRAG1 to SRAG3 shown in Table 1) was suspended and diluted in the medium, and then the cancer cells were cultivated together with the medium in a 96-well plate at 3×10^3 cells/well. After 48 hour cultivation, the MTT assay (Mosmann, T: Journal of Immunological Method, 65, 55-63 (1983)) was carried out to compare survival rates.
An assay on anticancer activity against cultured gastric cancer cells was carried out in the same manner as in the assay 3 except that gastric cancer cells NUGC-3 were used instead of the colon cancer cells DLD-1.

Another test addresses T1, DNA polymerase α (Bos taurus, UniProt A0AAA9TD94).
T1 construct: from tissue; host or cells: bovine thymus
T1 sequence (A0AAA9TD94 1-1441): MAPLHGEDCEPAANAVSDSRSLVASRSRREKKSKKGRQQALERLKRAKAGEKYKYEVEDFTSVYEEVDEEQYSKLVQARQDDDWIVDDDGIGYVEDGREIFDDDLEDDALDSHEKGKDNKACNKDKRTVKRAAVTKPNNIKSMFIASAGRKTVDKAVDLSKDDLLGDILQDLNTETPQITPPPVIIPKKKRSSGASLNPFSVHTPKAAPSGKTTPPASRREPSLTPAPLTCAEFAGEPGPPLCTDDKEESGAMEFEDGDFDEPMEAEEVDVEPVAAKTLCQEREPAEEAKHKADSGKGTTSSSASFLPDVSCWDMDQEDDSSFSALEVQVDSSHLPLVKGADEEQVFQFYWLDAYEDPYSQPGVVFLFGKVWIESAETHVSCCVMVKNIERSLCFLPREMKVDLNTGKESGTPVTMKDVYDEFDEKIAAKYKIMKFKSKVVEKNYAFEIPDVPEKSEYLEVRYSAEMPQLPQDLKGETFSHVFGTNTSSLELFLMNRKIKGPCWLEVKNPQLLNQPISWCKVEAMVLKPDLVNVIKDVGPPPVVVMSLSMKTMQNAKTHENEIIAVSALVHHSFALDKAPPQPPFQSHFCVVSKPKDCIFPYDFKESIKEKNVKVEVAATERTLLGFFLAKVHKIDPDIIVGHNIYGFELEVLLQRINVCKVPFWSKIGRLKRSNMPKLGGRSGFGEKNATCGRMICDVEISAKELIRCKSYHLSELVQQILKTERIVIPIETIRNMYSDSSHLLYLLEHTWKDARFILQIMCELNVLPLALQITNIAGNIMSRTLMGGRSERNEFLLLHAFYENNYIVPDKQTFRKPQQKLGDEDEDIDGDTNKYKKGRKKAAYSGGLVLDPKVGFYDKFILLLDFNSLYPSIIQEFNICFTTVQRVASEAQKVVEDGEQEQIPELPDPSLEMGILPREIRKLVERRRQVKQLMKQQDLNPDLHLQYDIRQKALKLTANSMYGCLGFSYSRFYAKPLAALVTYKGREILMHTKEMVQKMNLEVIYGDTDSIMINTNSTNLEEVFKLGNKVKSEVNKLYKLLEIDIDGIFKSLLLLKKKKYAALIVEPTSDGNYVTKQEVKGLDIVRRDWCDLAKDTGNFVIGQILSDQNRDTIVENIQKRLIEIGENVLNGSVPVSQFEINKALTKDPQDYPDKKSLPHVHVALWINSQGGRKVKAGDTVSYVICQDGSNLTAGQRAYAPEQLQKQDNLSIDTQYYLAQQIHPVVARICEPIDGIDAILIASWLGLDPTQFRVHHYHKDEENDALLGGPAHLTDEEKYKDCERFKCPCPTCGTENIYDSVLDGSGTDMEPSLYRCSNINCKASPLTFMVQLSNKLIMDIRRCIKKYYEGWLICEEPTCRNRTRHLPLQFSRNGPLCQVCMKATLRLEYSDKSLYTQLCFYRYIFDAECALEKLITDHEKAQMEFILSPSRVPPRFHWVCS
Briefly: Assay 1: inhibitory effect against DNA polymerase α ([3H]-dTTP incorporation). It is filed as biochemical. To be noted: DNA polymerase α from bovine thymus, 0.05 U, 37° C., 60 minutes. The method, then: An assay on inhibitory effect against a DNA polymerase α was carried out in the following manner.
(§2) Each mixture was added with a buffer containing inorganic salts for the enzymatic reaction, [^3H]-labeled dTTP and compounds for reaction containing a template DNA strand, and incubated at 37° C. for 60 minutes.
(§3) After the enzymatic reaction was quenched, the resultant reaction product was fixed on a dedicated filter and subjected to measurement by a liquid scintillation counter. The amount of enzymatically incorporated dTTP was calculated as a radiation dose (cpm) of [^3H]. Note that, each of the sulforhamnosylacylglycerol derivatives is a mixture of the S- and R-configurations with respect to an absolute configuration of the carbon of the 2-position of the glycerol moiety.

The subject of another test is Colon cancer cells DLD-1. Briefly: Assay 3: anticancer activity against cultured colon cancer cells (MTT assay). It counts as cell-based. The note with it: Homo sapiens, DLD-1, 48 hour cultivation. The method, then:
An assay on anticancer activity against cultured colon cancer cells was carried out in the following manner.
as §1

Another test concerns the target T2, DNA polymerase β (Rattus norvegicus, UniProt P06766).
T2 construct: made in house; host or cells: E. coli
Briefly: Assay 2: inhibitory effect against DNA polymerase β ([3H]-dTTP incorporation). It counts as biochemical. The note with it: for inhibitory effect against the DNA polymerase β (in words): at the tested concentrations, summary of Table 2; for IC50: recombinant rat DNA polymerase β, 0.05 U, 37° C., 60 minutes. The method, then: as §2, §3
An assay on inhibitory effect against a DNA polymerase β was carried out in the following manner.
The same procedure as in Assay 1 was carried out except that 0.05 U of DNA polymerase β was used in place of the DNA polymerase α. The DNA polymerase β was prepared from recombinant E. coli introduced with rat DNA polymerase β gene. In this way, the inhibitory effect of test compounds (SRAG1, SRAG2 and SRAG3 shown in Table 1 and dissolved in DMSO) against DNA polymerase : was assayed.

Where a name gives a salt, the structure may show the parent alone.

Turning to `CCCCCCCCCCCCCC(=O)OCC(O)CO[C@H]1O[C@H](CS(=O)(=O)[O-])[C@@H](O)[C@H](O)[C@@H]1O.[Na+]` (stereo partly drawn) [SRAG1, 3-O-(6-deoxy-6-sulfo-α-D-mannopyranosyl)-1-O-myristoyl-glycerol sodium salt], the IC50 in test [1] was 45 µg/mL; against DNA polymerase α, 23.6 µM; with Colon cancer cells DLD-1, 42.5 µg/mL; at DNA polymerase β, above 90.8 µM. Also, the “inhibitory effect against the DNA polymerase β (in words)” value (from here on “inhibitory effect”) at DNA polymerase β was “did not show an inhibitory effect”.

`CCCCCCCCCCCCCCCC(=O)OCC(O)CO[C@H]1O[C@H](CS(=O)(=O)[O-])[C@@H](O)[C@H](O)[C@@H]1O.[Na+]` (stereo partly drawn) [SRAG2, 3-O-(6-deoxy-6-sulfo-α-D-mannopyranosyl)-1-O-palmitoyl-glycerol sodium salt]: the IC50 in test [1] was 40 µg/mL; at DNA polymerase α it was 5.7 µM; in the test with Colon cancer cells DLD-1, 30 µg/mL; on DNA polymerase β, 28.7 µM. In addition, the “inhibitory effect” value against DNA polymerase β is recorded as “significant inhibitory activity”.

Turning to `CCCCCCCCCCCCCCCCCC(=O)OCC(O)CO[C@H]1O[C@H](CS(=O)(=O)[O-])[C@@H](O)[C@H](O)[C@@H]1O.[Na+]` (stereo partly drawn) [SRAG3, 3-O-(6-deoxy-6-sulfo-α-D-mannopyranosyl)-1-O-stearoyl-glycerol sodium salt], the IC50 is 28.5 µg/mL in test [1], 3.3 µM against DNA polymerase α, 14 µg/mL with Colon cancer cells DLD-1 and 11.1 µM at DNA polymerase β. In addition, the “inhibitory effect” value against DNA polymerase β is given as “significant inhibitory activity”.

With `CCCCCCCCCCCCCCCCCC(=O)OCC(CO[C@H]1O[C@H](CS(=O)(=O)O)[C@@H](O)[C@H](O)[C@@H]1O)OC(=O)CCCCCCCCCCCCCCCCC` (stereo partly drawn) [SRAG4, 3-O-(6-deoxy-6-sulfo-α-D-mannopyranosyl)-1,2-di-O-stearoyl-glycerol sodium salt], the 50% inhibitory concentration (IC50) on DNA polymerase α is 0.115 µM.
